In general, melting point refers to the temperature, or range, at which the solid turns liquid.

Take `CC(=O)O[C@@H](C(=O)O)c1ccccc1`: the melting point is 97 °C. Turning to `CSC[C@H](N)C(=O)O`, the melting point amounted to 240 °C. The same measure for `O=C1Cc2ccc3ccccc3c21`: 97 °C; for `Nc1ccnc(N)c1`: 107 °C; for `O=CN(C=O)C(N(C=O)C=O)N(C=O)C=O`: 145 °C. The same measure for `Cc1ccc(C)c2c1C(=O)N(C)C2O` (stereo not drawn): 163 °C; for `Oc1ccc(C2=Cc3ccccc3C(c3ccccc3)O2)cc1` (stereo not drawn): 121 °C. `Cc1c(C)n(C)c2ccccc12` showed a melting point of 18 °C. Next, `N#CC(C(=O)N1CCOCC1)=C(SCc1ccccc1)SCc1ccccc1`: 123 °C; `CC(C)(C)OC(=O)N[C@@H](Cc1ccc(Br)cc1)C(=O)O`: 118 °C; `COc1cc2c(cc1OC)C(=O)C(CC1CCN(Cc3ccccc3)CC1)C2` (stereo not drawn): 207 °C. `CCSCCO` yielded a melting point of -100 °C. The same measure for `O=C(O)CCC1CCCCCCCCCCC1=O` (stereo not drawn): 88 to 90 °C.

In turn, `COc1cc2c(c(OC)c1OC)-c1ccc(O)c(=O)cc1C(NC(C)=O)CC2` (stereo not drawn) had a melting point of 178 °C. On to `COc1ccc(Cl)c(Cl)c1`, for which the melting point was -8 °C.

`ON=Cc1cccc2c(Br)cccc12` returned a melting point of 134 °C. Turning to `Cc1cc(C)c(C2(C)CC(C(=NNC(N)=O)c3cc4cc(Br)ccc4o3)C2)c(C)c1` (stereo not drawn), the melting point is 230 to 232 °C. The same measure for `O=C1OCC(O)C1O` (stereo not drawn): 99 to 102 °C. The same measure for `O=Cc1cccc2ccccc12`: 33.5 °C.

Compound `COC1OC(=O)c2ccccc21` (stereo not drawn) displayed a melting point of 43.7 to 44.4 °C. Next, `Fc1cc(F)c(F)c(F)c1`: -48 °C; `COC(=O)C#Cc1cccc(C#CC(=O)OC)c1`: 93 °C; `O=Cc1ccc(OCc2ccc([N+](=O)[O-])cc2)cc1`: 130 °C. Consider `BrC(Br)C(Br)(Br)Br`, for which the melting point worked out at 56.5 °C. Next, `CCCCNC(=O)NS(=O)(=O)c1ccccc1`: 131 °C; `CCCCCCCOc1ccc(C(=O)O)cc1`: 146 °C. The same measure for `OCc1cccnc1N1CCCC1`: 74 to 76 °C.

As for `O=C(NCc1ccccn1)C(F)(F)F`, the melting point turned out to be 75 °C. The same measure for `CC(=O)C(C(C)=O)=C1SC2=C(C(=O)c3ccccc3C2=O)N1c1ccccc1`: 254 °C; for `NC(=S)Nc1cccnc1`: 159 to 160 °C. The same measure for `COc1ccc(C(=O)O)c(O)c1`: 157 to 159 °C; for `Oc1ccc(Br)cc1C=NCCN=Cc1cc(Br)ccc1O`: 191 to 196 °C; for `O=C1C2=C(NC1C(=O)c1ccc(Br)cc1)Oc1c(c(=O)oc3ccccc13)C2c1ccc(Br)cc1` (stereo not drawn): 230 °C.

Regarding `CN(C)CCO`, the melting point was -59 °C. In the case of `COc1ccccc1Oc1ccc(C(F)(F)F)cc1N`, the melting point is 28 °C. With `COC(=O)c1ccc(C(=O)OC)o1`, the melting point was found to be 112 °C.

With `CNC1CC2OC(C)(C1OC)n1c3ccccc3c3c4c(c5c6ccccc6n2c5c31)C(=O)NC4` (stereo not drawn), the melting point is 270 °C. Next, `CN(C)c1ccc(N)cc1`: 53 °C. Next, `COC(=O)c1ccc([N+](=O)[O-])c(C)c1`: 81 °C. In turn, `CC(C)CCCC(C)C1CCC2C3CC=C4CC(OC(=O)Cc5ccc(N(CCCl)CCCl)cc5)CCC4(C)C3CCC12C` (stereo not drawn) came in with a melting point of 90 °C. The compound `COc1cc2c(c3oc(=O)c4c(c13)CCOC4=O)C1C=COC1O2` (stereo not drawn) yielded a melting point of 245 °C. The same measure for `COP(=S)(OC)Oc1nc(Cl)c(Cl)cc1Cl`: 46 °C; for `N#Cc1ccc(N2CCC(C(=O)NN)CC2)cc1`: 198 to 202 °C. In the case of `CC(C)CCOC(=O)C(=O)OCCC(C)C`, the melting point is -9 °C. In the case of `Cc1c(C)c2ccccc2c2ccccc12`, the melting point amounted to 144 °C. Compound `CC(C)(C)c1cc(C(=O)c2ccccc2)c(O)cc1O` registered a melting point of 144 to 148 °C. The same measure for `Cc1cc(Cl)ncc1[N+](=O)[O-]`: 36 to 40 °C; for `COc1c(C(C)(C)C)cc([N+](=O)[O-])c(C)c1[N+](=O)[O-]`: 85 °C.

`O=Cc1ccc(-c2ccccc2)nc1`: the melting point lay in the range of 57 to 59 °C. In turn, `O=C(Cl)c1ccc(-c2ccccc2)s1` showed a melting point of 76 to 80 °C. The same measure for `O=C1C=C2CC3(O)COc4c(ccc(O)c4O)C3=C2C=C1O` (stereo not drawn): 180 °C; for `O=C(O)c1cccc(Oc2ccccn2)c1`: 108 to 112 °C. The same measure for `COc1cccc(C2C(C(=O)OC(C)C)=C(C)NC(C)=C2C(=O)OC(C)C)c1OC`: 141 °C; for `O=C(Oc1c(F)c(F)c(F)c(F)c1F)Oc1c(F)c(F)c(F)c(F)c1F`: 48 to 51 °C. Next, `COC(=O)c1ccc2c(I)c[nH]c2c1`: 150 °C; `Clc1ncc(Br)cn1`: 79 °C; `Cn1ncc(Br)c1N`: 104 to 105 °C. `COc1cccc(O)c1`: the melting point was -17 °C.

As for `Cc1ccccc1CC(NC(=O)OCC1c2ccccc2-c2ccccc21)C(=O)O` (racemic), the melting point is 157 to 164 °C.

The compound `Cc1ccccc1OCC(=O)O` registered a melting point of 155 to 157 °C. The same measure for `COc1cc2c(cc1C(C)C)C(C(=O)O)C2` (stereo not drawn): 86 °C; for `CCCOC(=O)C1=C(C)NC(=O)NC1c1cccc(OC)c1OC` (stereo not drawn): 163 °C; for `CC1=C(C)C2(C)C(C)=C(C)C12C` (stereo not drawn): 0.7 °C. Next, `CC(C)C1=C(O)C(=O)C2=C(C=CC3C(C)(C)CCCC23C)C1=O` (stereo not drawn): 167 °C. With `O=C(O)CCC(=O)c1cccs1`, the melting point was 121 to 122 °C. As to `N#Cc1cccc(C(=O)Cl)c1`, the melting point lay in the range of 38 to 44 °C. `CC(C)(C)P(C(C)(C)C)C(C)(C)C` gave a melting point of 30 °C.

`CC(=O)NC(Cc1ccc2c(c1)OCO2)C(=O)O` (stereo not drawn) had a melting point of 92 °C. The compound `COC(=O)c1nccnc1N` had a melting point of 171 °C. Next, `COc1nc(NC(C)C)nc(NC(C)C)n1`: 91.5 °C; `CC12CCC(C(=O)O)(OC1=O)C2(C)C` (stereo not drawn): 200 °C. For `O=C(O)C=Cc1ccc(Sc2ccc(Br)cc2)c([N+](=O)[O-])c1`, the melting point was 232 to 234 °C. `C=CC(=O)OCCCCCC` came in with a melting point of -45 °C. The same measure for `CCOC(=O)C1=C(COCCN)NC(C)=C(C(=O)OC)C1c1ccccc1Cl` (stereo not drawn): 178 °C; for `Oc1ccnc2cc(Cl)ccc12`: 280 °C; for `Cc1ccc([N+](=O)[O-])cc1I`: 61 °C. `Cc1ccc(Cl)cc1C` showed a melting point of -6 °C.

The compound `COC(=O)c1cnc(SC)n1C` yielded a melting point of 53 to 55 °C. Compound `CN(C)c1cccc2cccc(N(C)C)c12` gave a melting point of 49 °C. The same measure for `CCOC(=O)c1sc(-c2ccccc2)nc1C`: 36 to 39 °C.

`NCCCNCCCN` came in with a melting point of -14 °C. Next, `CC(=O)OC1CCC2C3CCC45OC4C(=O)C=CC5(O)C3CCC12C` (stereo not drawn): 178 °C; `Cc1nc(-c2ccccc2)sc1C(=O)NN`: 168 to 170 °C; `COc1ccc(N)c(C(=O)O)c1`: 151 °C. The same measure for `CCCCCCCCOCCCCCCCC`: -7.6 °C. Next, `C[Si](C)(C)CCS(=O)(=O)c1ccccc1`: 50 to 53 °C; `Cc1cc2c(N)cccc2nn1`: 189 to 191 °C.

In the case of `Cc1cc(C(F)(F)F)n2nc(-c3ccc(Cl)cc3)cc2n1`, the melting point is 176 °C. For `CCOC(=O)C(C)(C#N)c1ccccc1[N+](=O)[O-]` (stereo not drawn), the melting point amounted to 68 °C. Regarding `O=C(O)CCCCCCCCCCCCCCCCCCCCC(=O)O`, the melting point lay in the range of 125 to 127 °C. Next, `NNc1ccc(F)cc1F`: 65 to 67 °C; `O=[N+]([O-])c1ccc(S(=O)(=O)Cl)cc1C(F)(F)F`: 64 °C. `C=C(C)C(=O)OCCC(F)(F)C(F)(F)C(F)(F)C(F)(F)C(F)(F)C(F)(F)C(F)(F)C(F)(F)C(F)(F)C(F)(F)F` yielded a melting point of 45 to 50 °C. The same measure for `CCCC(=O)OCN1C(=O)NC(c2ccccc2)(c2ccccc2)C1=O`: 131 °C. The same measure for `Cc1ccc2oc3c(c2c1)-c1oc(C)cc1C(C)(c1ccccc1)CC3` (stereo not drawn): 119 °C; for `Cc1ccc(/C=N/c2nc(C(F)(F)F)n[nH]2)cc1`: 207 to 209 °C.

The compound `Nc1nc2ccccc2n1Cc1ccc(Cl)cc1` gave a melting point of 197 to 199 °C. The same measure for `C1=NN(c2ccccc2)CC1`: 52 °C; for `Cc1cc(O)c(C)c(O)c1`: 161 to 164 °C; for `O=[N+]([O-])c1ccc(F)cc1Cl`: 35 °C. Next, `C=COC(=O)CC`: -80 °C; `CC(=O)n1cc(C=O)c2ccccc21`: 162 °C. The same measure for `O=C(CCl)N1CCc2c([nH]c3ccccc23)C1C(F)(F)F` (stereo not drawn): 232 to 235 °C.

`CCCC(CCC)C(N)=O`: the melting point was 125 °C. In turn, `O=Cc1ccc(-c2cncnc2)cc1` displayed a melting point of 147 to 148 °C. Next, `N#CC(C#N)=C1c2cc([N+](=O)[O-])ccc2-c2c1cc([N+](=O)[O-])cc2[N+](=O)[O-]`: 267 °C; `N=C(N)S(=O)O`: 126 °C. Compound `CC(C)(S)C(N)C(=O)O` (stereo not drawn) returned a melting point of 212 °C.

As to `Cc1nn(-c2ccccc2)nc1CO`, the melting point lay in the range of 75 to 76 °C.

`CC1C=CCC1` (stereo not drawn) gave a melting point of -127 °C. The same measure for `O=C(O)/C=C/c1ccc(C(F)(F)F)cc1`: 230 to 234 °C. The compound `O=C(Cl)CCl` returned a melting point of -22 °C.

The compound `CC(C)Oc1cc(N)c(Cl)cc1Cl` registered a melting point of 42 °C.
